The values that follow come from patent US6218597A, “Transgenic model and treatment for heart disease” (University Technology Corporation, priority 1998, dated 2001).

This assay concerns the target βAR (β-adrenergic receptor), cardiac sarcolemmal membranes of wild-type FVB/N mice. The following applies: read-out: Kd for ICYP.

In the case of `CC(C)(C)NCC(O)COc1cccc2[nH]c(C#N)c([125I])c12` (stereo not shown) [ICYP, ^125 I-iodocyanopindolol], the Kd was roughly 0.02 nM.

The Kd is the free concentration of one partner at which half of the binding sites on the other are occupied at equilibrium, for simple one-to-one binding.
